Reference: patent US7745375B2, “Synergistic insecticide mixtures” (Bayer CropScience AG, priority 2003, dated 2010)

Assays:
Assay type in all cases: in vivo
Myzus persicae [1] = test: Example D Myzus persicae test (cabbage leaves dipped); settings: single active compound, 0.8 ppm
Procedure: (§1) To prepare a suitable active compound preparation, 1 part by weight of active compound is mixed with the stated amounts of solvent and emulsifier, and the concentrate is diluted with emulsifier-comprising water to the desired concentration.
(§2) Cabbage leaves (Brassica oleracea) which are severely infested with green peach aphids (Myzus persicae) are treated by being dipped into the active compound preparation of the desired concentration.
(§3) After the desired period of time, the destruction is determined in %. In this context, 100% means that all of the aphids were destroyed; 0% means that no aphids were destroyed.

Heliothis armigera [2] = test: Example L Heliothis armigera test (soya bean shoots dipped); settings: single active compound, 4 ppm
Procedure: as §1
Soya bean shoots (Glycine max) are treated by being dipped into the active compound preparation of the desired concentration and populated with Heliothis armigera caterpillars while the leaves are still moist.
(§4) After the desired period of time, the destruction is determined in %. In this context, 100% means that all of the caterpillars were destroyed; 0% means that no caterpillars were destroyed.

Bemisia tabaci [3] = test: Example K Bemisia tabaci test (cotton plants sprayed); settings: single active compound, 0.16 ppm
Procedure: as §1
(§5) Cotton plants (Gossypium hirsutum) which are infested with whitefly (Bemisia tabaci) eggs, larvae and puparia are sprayed with the active compound preparation of the desired concentration.
(§6) After the desired period of time, the destruction is determined in %. In this context, 100% means that all of the whiteflies were destroyed; 0% means that no whiteflies were destroyed.

Bemisia tabaci [4] = test: Example B Bemisia tabaci test (cotton plants sprayed); settings: single active compound, 0.8 ppm
Procedure: as §1, §5, §6

Heliothis armigera [5] = test: Example C Heliothis armigera test (soya bean shoots dipped); settings: single active compound, 4 ppm
Procedure: as §1
Soya bean shoots (Glycine max) are treated by being dipped into the active compound preparation of the desired concentration and populated with Heliothis armigera caterpillars while the leaves are still damp.
as §4

Myzus persicae [6] = test: Example M Myzus persicae test (cabbage leaves dipped); settings: single active compound, 0.16 ppm
Procedure: as §1, §2, §3

[7] = system: Plutella xylostella (normal strain); test: Example E Plutella xylostella test (normal strain); settings: single active compound, 20 ppm
Procedure: as §1
Cabbage leaves (Brassica oleracea) are treated by being dipped into the active compound preparation of the desired concentration and populated with diamondback moth caterpillars (Plutella xylostella/sensitive strain) while the leaves are still moist.
as §4

Spodoptera exigua [8] = test: Example N Spodoptera exigua test (cabbage leaves dipped); settings: single active compound, 20 ppm
Procedure: as §1
(§7) Cabbage leaves (Brassica oleracea) are treated by being dipped into the active compound preparation of the desired concentration and populated with army worm caterpillars (Spodoptera exigua) while the leaves are still moist.
as §4

Aphis gossypii = test: Example A Aphis gossypii test (cotton leaves dipped); settings: single active compound, 0.8 ppm
Procedure: as §1
Cotton leaves (Gossypium hirsutum) which are severely infested with cotton aphids (Aphis gossypii) are treated by being dipped into the active compound preparation of the desired concentration.
as §3

Heliothis armigera [9] = test: Example F Heliothis armigera test (soya bean shoots dipped); settings: single active compound
Procedure: as §1
Soya bean shoots (glycine max) are treated by being dipped into the active compound preparation of the desired concentration and populated with Heliothis armigera caterpillars while the leaves are still moist.
as §4

Spodoptera exigua [10] = test: Example I Spodoptera exigua test (cabbage leaves dipped); settings: single active compound, 100 ppm
Procedure: as §1, §7, §4

Myzus persicae [11] = test: Example G Myzus test (cabbage leaves dipped); settings: single active compound, 0.16 ppm
Procedure: as §1, §2, §3

[12] = system: Plutella xylostella/normal strain; test: Example H Plutella test (normal strain); settings: single active compound
Procedure: as §1
Cabbage leaves (Brassica oleracea) are treated by being dipped into the active compound preparation of the desired concentration and populated with diamondback moth caterpillars (Plutella xylostella/normal strain) while the leaves are still moist.
as §4

Spodoptera frugiperda = test: Example J Spodoptera frugiperda test (cabbage leaves dipped); settings: single active compound, 0.8 ppm
Procedure: as §1
Cabbage leaves (Brassica oleracea) are treated by being dipped into the active compound preparation of the desired concentration and populated with army worm caterpillars (Spodoptera frugiperda) while the leaves are still moist.
as §4

In the case of CN/C(=N\[N+](=O)[O-])NCc1cnc(Cl)s1 [Clothianidin, clothianidin], the “Destruction in % after 6 d” value (Myzus persicae [1]) is reported as 65%, the “Destruction in % after 6 d” value (Heliothis armigera [2]) is reported as 0% and the “Destruction in % after 10 d” value (Bemisia tabaci [3]) is reported as 5%. For the same molecule, the “Destruction in % after 12 d” value (Bemisia tabaci [4]) was 35%, the “Destruction in % after 6 d” value (Heliothis armigera [5]) was 45% and the “Destruction in % after 6 d” value (Myzus persicae [6]) was 0%. The “Destruction in % after 6 d” value [7] was 60%, the “Destruction in % after 6 d” value (Spodoptera exigua [8]) was 10% and the “Destruction in % after 6 d” value (Aphis gossypii) was 0%.
O=[N+]([O-])/N=C1\NCCN1Cc1ccc(Cl)nc1 [Imidacloprid, imidacloprid] was tested, and the “Destruction in % after 7 d” value (Heliothis armigera [9]; 4 ppm) was 10%, the “Destruction in % after 6 d” value (Heliothis armigera [2]) was 10% and the “Destruction in % after 7 d” value (Spodoptera exigua [10]) was 45%. For the same molecule, the “Destruction in % after 6 d” value (Myzus persicae [11]) was 10%, the “Destruction in % after 10 d” value (Bemisia tabaci [3]) was 5% and the “Destruction in % after 7 d” value ([12]; 20 ppm) was 15%. The “Destruction in % after 6 d” value (Myzus persicae [6]) was 50%, the “Destruction in % after 7 d” value (Spodoptera frugiperda) was 20% and the “Destruction in % after 6 d” value (Spodoptera exigua [8]) was 10%.
With N#C/N=C1\SCCN1Cc1ccc(Cl)nc1 [Thiacloprid, thiacloprid] the “Destruction in % after 6 d” value (Myzus persicae [1]) was 20%, the “Destruction in % after 7 d” value (Heliothis armigera [9]; 0.8 ppm) was 0% and the “Destruction in % after 7 d” value (Spodoptera exigua [10]) was 0%. For the same molecule, the “Destruction in % after 6 d” value (Myzus persicae [11]) was 10%, the “Destruction in % after 12 d” value (Bemisia tabaci [4]) was 80% and the “Destruction in % after 7 d” value ([12]; 4 ppm) was 0%. The “Destruction in % after 6 d” value (Heliothis armigera [5]) was 35%, the “Destruction in % after 6 d” value [7] was 15% and the “Destruction in % after 7 d” value (Spodoptera frugiperda) was 10%. For the same molecule, the “Destruction in % after 6 d” value (Aphis gossypii) was 25%.
